Assays:
[1] = Liver microsomal stability, human; conditions: for microsomal CLint / half-life / half-life at 1 μM: microsomes
Outline: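 Cofactor-initiated incubations run at 37° C hold 1 μM test article; samples drawn at 0, 10, 20, 30 and 60 min are protein-precipitated with ice-cold acidified acetonitrile. Prodrug and PEA are both monitored, and depletion of the prodrug over time gives the half-life.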

[2] = Liver microsomal stability, mouse; conditions: for microsomal CLint / half-life / half-life at 1 μM: male, microsomes
Outline: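 Read-out: LC-MS/MS with electrospray ionization, tracking both the dosed prodrug and its expected drug (PEA), expressed as percent remaining relative to time zero. Microsomal incubations held compound at 1 μM final, 37° C, and were sampled up to 60 min.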

[3] = Beagle, Control Compound, Dog liver microsomes
[4] = Beagle, Control compound, Dog liver microsomes
[5] = Beagle, control compound, dog liver microsomes
[6] = CD-1, mouse, Control Compound, Mouse liver microsomes

SMILES: C[C@]12CC[C@H]3[C@@H](CCC4=CC(=O)CC[C@@]43C)[C@@H]1CC[C@@H]2O [Testosterone, testosterone, reference compound]
- Clint, control compound ([1]; Example 4 control run): 0.0792 ml/min/mg protein
- Half-life, control compound ([1]; Example 4 control run): 17 min
- microsomal CLint ([1]; both, human, CLint, Control Compound, Human liver microsomes): 66.7 µL/min/mg
- microsomal CLint ([1]; both, human, CLint, Control compound, Human liver microsomes): 50.5 µL/min/mg
- microsomal CLint ([1]; both, human, CLint, Human liver microsomes, control compound): 66.7 µL/min/mg
- microsomal CLint ([1]; both, human, CLint, control compound, human liver microsomes): 151 µL/min/mg
- half-life ([1]; both, human, Control Compound, Human liver microsomes): 21 min
- half-life ([1]; both, human, Control compound, Human liver microsomes): 27 min
- half-life at 1 μM ([1]; both, human, Human liver microsomes): 21 min
- microsomal CLint ([1]; male, Sprague-Dawley, CLint, Control Compound, Rat liver microsomes): 1010 µL/min/mg
- microsomal CLint ([1]; male, Sprague-Dawley, CLint, Control compound, Rat liver microsomes): 760 µL/min/mg
- microsomal CLint ([1]; male, Sprague-Dawley, CLint, Rat liver microsomes, control compound): 1010 µL/min/mg
- microsomal CLint ([1]; male, Sprague-Dawley, CLint, control compound, rat liver microsomes): 911 µL/min/mg
- microsomal CLint ([1]; male, Sprague-Dawley, Clint, control compound, Example 4 control run): 1030 µL/min/mg
- half-life ([1]; male, Sprague-Dawley, Control Compound, Rat liver microsomes): 1.4 min
- half-life ([1]; male, Sprague-Dawley, Control compound, Rat liver microsomes): 1.8 min
- half-life at 1 μM ([1]; male, Sprague-Dawley, Rat liver microsomes): 1.4 min
- half-life ([1]; male, Sprague-Dawley, control compound, Example 4 control run): 1.4 min
- half-life ([1]; male, Sprague-Dawley, control compound, rat liver microsomes): 1.5 min
- Half-life ([2]; control compound, mouse liver microsomes): 2.1 min
- microsomal CLint [2, 3]: 41.9 µL/min/mg
- microsomal CLint [2, 4]: 41.5 µL/min/mg
- microsomal CLint ([2]; Beagle, Dog liver microsomes, control compound): 41.9 µL/min/mg
- microsomal CLint [2, 5]: 59.3 µL/min/mg
- half-life [2, 3]: 33 min
- half-life [2, 4]: 33 min
- half-life at 1 μM ([2]; Beagle, Dog liver microsomes): 33 min
- half-life [2, 5]: 23 min
- microsomal CLint [2, 6]: 444 µL/min/mg
- microsomal CLint ([2]; CD-1, mouse, Mouse liver microsomes, control compound): 190 µL/min/mg
- microsomal CLint ([2]; CD-1, mouse, control compound, mouse liver microsomes): 674 µL/min/mg
- half-life [2, 6]: 3.1 min
- half-life ([2]; CD-1, mouse, Control compound, Mouse liver microsomes): 4.9 min
- half-life at 1 μM ([2]; CD-1, mouse, Mouse liver microsomes): 7.3 min
